Values quoted from earlier work in US9351995B1, “Compositions and methods of enhancing wound healing” (RED OAX HOLDINGS, LLC, priority 2011, dated 2016).

Key:
fibroblast = conditions: cited from earlier work
[1] = tested on: human surface respiratory epithelium; conditions: cited from earlier work

| Compound | fibroblast outgrowth (fibroblast) | effect on repair of small-size injuries [1] |
| --- | --- | --- |
| [Br-].[Br-].[Mg+2] [MgBr2] | inhibitory effects on fibroblast outgrowth |  |
| COc1cc2c(c(OC)c1OC)-c1ccc(OC)c(=O)cc1[C@@H](NC(C)=O)CC2 [colchicine] |  | did not interrupt the repair process |
| C=C1[C@@H](C)[C@H]2[C@H](Cc3ccccc3)NC(=O)[C@]23OC(=O)/C=C/[C@H](O)CCC[C@@H](C)C/C=C/[C@H]3[C@@H]1O [cytochalasin B] |  | prevented cell migration |
